Laboratory results taken from ChEMBL document CHEMBL1201862, “PubChem BioAssay data set” (2004).
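How tested: cells in 96-well plates exposed to compound for 48 hours at five concentrations. GI50 = concentration required for 50% inhibition of growth.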 Active and inactive are the calls of the source. Cut-off read from the data, not from the text of the source: active = GI50 up to about 1.1 µM and inactive = higher.

Legend:
Experiment in all cases: NCI anticancer screen, dose series, 48 h
EKVX = system: EKVX
CAKI-1 = system: CAKI-1
786-0 = system: 786-0
ACHN = system: ACHN
M14 = system: M14
U-251 = system: U-251
NCI/ADR-RES = system: NCI/ADR-RES
UACC-62 = system: UACC-62
SK-MEL-28 = system: SK-MEL-28
IGROV-1 = system: IGROV-1
OVCAR-4 = system: OVCAR-4
RXF 393 = system: RXF 393
TK-10 = system: TK-10
A498 = system: A498
HCC 2998 = system: HCC 2998
COLO 205 = system: COLO 205
MDA-MB-435 = system: MDA-MB-435
HOP-62 = system: HOP-62
UO-31 = system: UO-31

SMILES | GI50 (EKVX) | GI50 (CAKI-1) | GI50 (786-0) | GI50 (ACHN) | GI50 (M14) | GI50 (U-251) | GI50 (NCI/ADR-RES) | GI50 (UACC-62) | GI50 (SK-MEL-28) | GI50 (IGROV-1) | GI50 (OVCAR-4) | GI50 (RXF 393) | GI50 (TK-10) | GI50 (A498) | GI50 (HCC 2998) | GI50 (COLO 205) | GI50 (MDA-MB-435) | GI50 (HOP-62) | GI50 (UO-31)
CCCCNc1c(CN)cnc2cc(Cl)ccc12 | 3.79 µM (inactive) | 21.1 µM (inactive) | 16.7 µM (inactive) | 22.6 µM (inactive) | 20 µM (inactive) | 16.4 µM (inactive) | 16.2 µM (inactive) | 15.6 µM (inactive) | 15.6 µM (inactive) | 14.7 µM (inactive) | 16.6 µM (inactive) | 14.5 µM (inactive) | 15 µM (inactive) | 15.4 µM (inactive) | 2.73 µM (inactive) | 7.48 µM (inactive) | 15.6 µM (inactive) | 14.1 µM (inactive) | –
O=C1c2c(ccc3c2CCC3)CC12Cc1ccccc1C2 | 22.5 µM (inactive) | 5.94 µM (inactive) | 20.7 µM (inactive) | 13.7 µM (inactive) | 19.8 µM (inactive) | 22.2 µM (inactive) | 28.4 µM (inactive) | – | 25 µM (inactive) | 29 µM (inactive) | 31.2 µM (inactive) | 11.5 µM (inactive) | 21.5 µM (inactive) | 12.4 µM (inactive) | 22 µM (inactive) | 16.6 µM (inactive) | 13.2 µM (inactive) | 20.9 µM (inactive) | 5.27 µM (inactive)
O=C(CC(=O)N(C(=O)/C=C\c1ccccc1)c1ccc(Cl)cc1)N1N=C(c2ccccc2)C(/N=N/c2cccc([N+](=O)[O-])c2)C1=O (stereo not drawn) | 16.9 µM (inactive) | 10.7 µM (inactive) | 3.35 µM (inactive) | 5.13 µM (inactive) | 7.08 µM (inactive) | 5.82 µM (inactive) | 2.18 µM (inactive) | 3.09 µM (inactive) | 11.5 µM (inactive) | 9.06 µM (inactive) | – | 10.3 µM (inactive) | 7.89 µM (inactive) | 6.03 µM (inactive) | 3.87 µM (inactive) | 3.45 µM (inactive) | 9.82 µM (inactive) | 11.9 µM (inactive) | > 100 µM (inactive)
CC1=Nc2ccccc2OC(C)=C1/N=N/c1ccc2[nH]c(C)nc2c1 | > 100 µM (inactive) | 47.1 µM (inactive) | > 100 µM (inactive) | 43.8 µM (inactive) | > 100 µM (inactive) | > 100 µM (inactive) | > 100 µM (inactive) | 83.4 µM (inactive) | > 100 µM (inactive) | 33.5 µM (inactive) | > 100 µM (inactive) | 56.1 µM (inactive) | > 100 µM (inactive) | 24.4 µM (inactive) | > 100 µM (inactive) | > 100 µM (inactive) | > 100 µM (inactive) | > 100 µM (inactive) | –
CC#CC#C/C=C1/O[C@]2(CCC(OC(C)=O)CO2)[C@@H]2O[C@H]12 (stereo partly drawn) | 31.5 µM (inactive) | 25.5 µM (inactive) | 18.2 µM (inactive) | 24.9 µM (inactive) | 18.4 µM (inactive) | 17.9 µM (inactive) | 21.7 µM (inactive) | 16.6 µM (inactive) | – | 50.7 µM (inactive) | 27.9 µM (inactive) | 18.5 µM (inactive) | 39.5 µM (inactive) | 22.2 µM (inactive) | 18.5 µM (inactive) | 15.1 µM (inactive) | 22.1 µM (inactive) | 37.2 µM (inactive) | 20.1 µM (inactive)
COC(=O)/C(C)=N/N=C(\S)SC | > 100 µM (inactive) | 35.2 µM (inactive) | 35.9 µM (inactive) | 34.1 µM (inactive) | 23.2 µM (inactive) | 38.5 µM (inactive) | 30 µM (inactive) | – | 44.5 µM (inactive) | 47.5 µM (inactive) | 46.3 µM (inactive) | 16.7 µM (inactive) | 95.5 µM (inactive) | > 100 µM (inactive) | 40.6 µM (inactive) | – | 60.5 µM (inactive) | > 100 µM (inactive) | 36.7 µM (inactive)
C/C(=N\Nc1nc2ccccc2o1)c1cc(C)ncn1 | < 0.0153 µM (active) | 0.0129 µM (active) | < 0.0275 µM (active) | < 0.0189 µM (active) | < 0.0206 µM (active) | 0.128 µM (active) | 0.0242 µM (active) | 0.0867 µM (active) | 4 µM (inactive) | 0.0275 µM (active) | 0.136 µM (active) | 1.34 µM (inactive) | – | > 100 µM (inactive) | 11 µM (inactive) | < 0.01 µM (active) | 0.319 µM (active) | 0.11 µM (active) | 0.019 µM (active)
NC(=O)C(=CN1C(=O)CC(=O)NC1=S)C(N)=O | > 100 µM (inactive) | > 100 µM (inactive) | > 100 µM (inactive) | > 100 µM (inactive) | > 100 µM (inactive) | > 100 µM (inactive) | > 100 µM (inactive) | – | > 100 µM (inactive) | > 100 µM (inactive) | > 100 µM (inactive) | > 100 µM (inactive) | > 100 µM (inactive) | > 100 µM (inactive) | > 100 µM (inactive) | > 100 µM (inactive) | > 100 µM (inactive) | > 100 µM (inactive) | > 100 µM (inactive)
